The results in this text go back to PubChem BioAssay (NCI).

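Results reflect a 48-hour exposure of cells in 96-well plates to compound at five concentrations. At the TGI there is no net growth.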

What all share (experiment): NCI tumour cell line growth inhibition, 48 h
Assay [1] deals with CAKI-1 renal.
Assay [2] relates to CCRF-CEM leukemia.
The subject of assay [3] is HCT-116 colon.
Assay [4] relates to HL-60(TB) leukemia.
Assay [5] has as its system HOP-62 NSCLC.
Assay [6] relates to IGROV1 ovarian.
Assay [7] has as its system KM12 colon.
The subject of assay [8] is LOX IMVI melanoma.
Assay [9] deals with MDA-MB-231 breast.
Assay [10] concerns MDA-MB-435.
Assay [11] has as its system MOLT-4 leukemia.
Assay [12] concerns NCI-H23 lung.
Assay [13] relates to NCI-H522 lung.
Assay [14] has as its system OVCAR-3 ovarian.
The subject of assay [15] is SF-268 CNS.
Assay [16] concerns SF-295 CNS.
The subject of assay [17] is SF-539 CNS.
Assay [18] concerns SK-MEL-2 melanoma.
For assay [19], the system named is SN12C renal.

With `CCN(CCCl)c1cc(CN(C)C)cc(NC(=O)c2ccc(C(=O)Nc3cc(CN(C)C)cc(N(CC)CCCl)c3)cc2)c1`, the TGI was 1.74 µM in assay [1]; 1.01 µM in [2]; 1.06 µM in [3]; 1.09 µM in assay [4]; 0.966 µM in [5]; 0.732 µM in [6]. Further, the TGI in assay [7] was 1.36 µM; in [8] it was 0.712 µM; in assay [9], 1.36 µM; in assay [10], 0.48 µM; in assay [11], 0.248 µM; in assay [12] it was 0.472 µM. Also, the TGI worked out at 0.234 µM in assay [13]; 2.66 µM in assay [14]; 0.749 µM in [15]; 1.21 µM in [16]; 0.815 µM in assay [17]; 3.23 µM in assay [18]. Besides, the TGI in assay [19] was found to be 1.53 µM.

As for `CN1CCCC2C(c3ccccc3)C(C3=NCCCC3)C(c3ccccc3)CC21` (configuration not stated), the TGI in assay [1], in assay [2], in assay [3], in assay [4], in assay [5] and in assay [6] was above 100 µM throughout. The TGI is above 100 µM in assay [7]; 55.2 µM in assay [8]; above 100 µM in [9]; 36.6 µM in assay [10]; above 100 µM in assay [11]; above 100 µM in [12]. The TGI was 54.5 µM in assay [13]; above 100 µM in assay [14]; above 100 µM in [15]; above 100 µM in assay [16]; 31.3 µM in assay [17]; above 100 µM in [18]. Also, the TGI in assay [19] is above 100 µM.

`Cn1c(-c2cccs2)cc(-c2cccs2)c1-c1cccs1`: the TGI in assay [1], in assay [2], in assay [3], in [4], in [5] and in [6] was above 100 µM throughout. For the same compound, the TGI in assay [7], in [8], in assay [9], in assay [10], in assay [11] and in assay [12] was above 100 µM in each case. The TGI in assay [13] was above 93.5 µM; in [14], above 100 µM; in [15], above 100 µM; in [16], above 100 µM; in assay [17] it was above 100 µM; in assay [18], above 100 µM. The compound also had a TGI in assay [19] above 100 µM.

Consider `C=C(C)C1CC=C(C)C(=O)C1` (configuration not stated), for which the TGI in assay [1], in assay [2], in assay [3], in assay [4], in assay [5] and in assay [6] was above 100 µM throughout. The TGI in assay [7], in assay [8], in assay [9], in assay [10], in assay [11] and in assay [12] was above 100 µM each time. For the same compound, the TGI in assay [13], in assay [14], in assay [15], in assay [16], in assay [17] and in assay [18] was above 100 µM in each case. The compound also returned a TGI in assay [19] above 100 µM.

With `CCOC(=O)CC[C@H](N)C(=O)N[C@@H](Cc1ccc(N(CCCl)CCCl)cc1)C(=O)OCC`, the TGI in [1] came out at 4.39 µM; in [2], 4.5 µM; in [3], 4.09 µM; in assay [4], 1.33 µM; in assay [5], 9.94 µM; in assay [6] it was 4.75 µM. Further, the TGI in [7] was determined as 11.6 µM; in assay [8] it was 2.94 µM; in assay [9], 4.41 µM; in [10], 2.83 µM; in assay [11] it was 3.61 µM; in assay [12], 1.35 µM. For the same compound, the TGI in assay [13] was 2.54 µM; in [14], 1.82 µM; in [15] it was 7.07 µM; in [16], 14.8 µM; in [17], 2.8 µM; in assay [18], 5.28 µM. The TGI in assay [19] amounted to 9.22 µM.

Regarding `O=C1c2ccccc2-c2nnc(-c3ccc([N+](=O)[O-])cc3)cc21`, the TGI in assay [1], in assay [2], in [3], in [4], in [5] and in assay [6] was above 10 µM throughout. In addition, the TGI in [7], in assay [8], in assay [9], in assay [10], in assay [11] and in [12] was above 10 µM throughout. Also, the TGI in assay [13], in [14], in assay [15], in assay [16], in assay [17] and in [18] was above 10 µM in each case. The compound further yielded a TGI in assay [19] above 10 µM.

As to `CC(C)C[C@H]1[C@@H](OCc2ccccc2)COS(=O)(=O)N1[C@H](C)c1ccccc1`, the TGI in assay [1] is above 100 µM; in assay [2], above 100 µM; in [3], above 100 µM; in assay [4] it was above 69.7 µM; in assay [5], above 100 µM; in [6], above 100 µM. In addition, the TGI in [7] is above 100 µM; in [8], above 100 µM; in [9] it was above 100 µM; in [10], above 100 µM; in [11], above 74.7 µM; in assay [12] it was above 100 µM. Moreover, the TGI in assay [13], in assay [14], in [15], in assay [16], in assay [17] and in assay [18] was above 100 µM in each case. For the same compound, in assay [19], the TGI was above 100 µM.

`CCOc1cccc(C=Nc2ccccc2SSc2ccccc2N=Cc2cccc(OCC)c2O)c1O`: the TGI came out at 29.3 µM in assay [1]; 12.2 µM in assay [2]; 11.2 µM in assay [3]; 14.8 µM in [4]; 30.9 µM in [5]; 15.9 µM in [6]. The TGI in assay [7] turned out to be 19.6 µM; in [8], 14.9 µM; in [9], 35 µM; in [10], 23.7 µM; in assay [11], 10.4 µM; in [12], 20.3 µM. The TGI in assay [13] stood at 10.4 µM; in assay [14], 8.16 µM; in assay [15], 21.5 µM; in [16], 37.6 µM; in assay [17] it was 80.2 µM; in [18] it was 37.7 µM. This compound came in with a TGI in [19] of 35.7 µM.

`O=C1c2ccccc2C(=O)C2NC(CCCCCSSCCCCCC3=NC4C(=O)c5ccccc5C(=O)C4N3)=NC12` (configuration not stated): the TGI in assay [1], in [2], in [3], in assay [4], in [5] and in [6] was above 100 µM throughout. In addition, the TGI in [7], in assay [8], in assay [9], in assay [10], in [11] and in assay [12] was above 100 µM in each case. The TGI in assay [13], in [14], in assay [15], in assay [16], in assay [17] and in assay [18] was above 100 µM throughout.

For the compound `C[N+]12CCCCC1C(COc1cccc3cccnc13)CCC2` (configuration not stated), the TGI in assay [1], in assay [2], in [3], in assay [4], in [5] and in [6] was above 100 µM throughout. In addition, the TGI in assay [7], in assay [8], in assay [9], in assay [10], in assay [11] and in assay [12] was above 100 µM throughout. Also, the TGI in assay [13], in [14], in [15], in assay [16], in [17] and in assay [18] was above 100 µM in each case. This compound also showed a TGI in [19] above 100 µM.

With `O=S(=O)(O)CCSSCCS(=O)(=O)O`, the TGI in [1], in assay [2], in [3], in assay [4], in [5] and in assay [6] was above 1000 µM throughout. Besides, the TGI in [7], in assay [8], in [9], in [10], in assay [11] and in assay [12] was above 1000 µM throughout. Also, the TGI in [13], in [14], in [15], in assay [16], in assay [17] and in assay [18] was above 1000 µM each time. The compound further returned a TGI in assay [19] above 1000 µM.

For `O=C(CSc1ncccn1)N/N=C/c1ccccc1OCc1ccccc1`, the TGI is above 100 µM in assay [1]; 57.9 µM in [2]; 53.4 µM in assay [3]; 47.5 µM in assay [4]; 83.1 µM in assay [5]; above 100 µM in [6]. The TGI was above 100 µM in assay [7]; 36.4 µM in [8]; 95.3 µM in assay [9]; 31.5 µM in assay [10]; 65.8 µM in [11]; above 100 µM in assay [12]. The TGI in assay [13] is 79.2 µM; in assay [14] it was 33.9 µM; in [15], above 100 µM; in [16], 50.9 µM; in assay [17], 46 µM; in assay [18], 47.6 µM. Besides, in [19], the TGI came to 72.6 µM.

Take `O=C1CC(Br)c2c(Br)sc(Br)c21` (configuration not stated): the TGI in assay [1] was found to be 38.8 µM; in [2], 9.42 µM; in assay [3] it was 26.4 µM; in assay [4], 39.3 µM; in [5], 39 µM; in assay [6] it was 33.5 µM. In addition, the TGI in assay [7] was 49 µM; in assay [8], 27.4 µM; in assay [9], 35.1 µM; in assay [10] it was 39.1 µM; in [11] it was 25.5 µM; in assay [12] it was 32 µM. In addition, the TGI in [13] amounted to 24.4 µM; in assay [14] it was 32.9 µM; in assay [15], 62.4 µM; in assay [16], 58.7 µM; in [17], 43.7 µM; in [18] it was 35.8 µM. Besides, the TGI in assay [19] was 29 µM.

Consider `NCc1ccc(-c2ccc(CN)s2)s1`, for which the TGI in assay [1] was above 100 µM; in assay [2] it was above 100 µM; in assay [3] it was above 100 µM; in assay [4], above 100 µM; in assay [5] it was above 100 µM; in assay [6] it was 76.3 µM. For the same compound, the TGI in [7], in assay [8], in assay [9], in assay [10], in assay [11] and in assay [12] was above 100 µM throughout. In addition, the TGI in assay [13], in assay [14], in assay [16], in assay [17], in assay [18] and in assay [19] was above 100 µM throughout.

For the compound `C[C@]12CCC(O)CC1=CC[C@@H]1[C@@H]2CC[C@]2(C)C(O)[C@H](n3ccnc3)C[C@@H]12` (some centres not stated), the TGI in [1] was above 100 µM; in assay [2], above 100 µM; in assay [3], above 100 µM; in assay [4] it was 38.3 µM; in assay [6] it was above 100 µM; in [7], above 100 µM. For the same compound, the TGI in assay [8] was above 100 µM; in [9] it was above 100 µM; in [10], above 100 µM; in assay [11], 80.1 µM; in [12], above 100 µM; in [13] it was above 100 µM. Also, the TGI in assay [14], in assay [15], in assay [16], in [17], in assay [18] and in assay [19] was above 100 µM in each case.
